The record followed here is paper PMC10363545, “The potential use of glycosyl-transferase inhibitors for targeted reduction of S. mutans biofilms in dental materials” (Scientific Reports, 2023).

In assay [1] the target is T1, GTF-B (Streptococcus mutans, UniProt P08987).
T1 construct: gene gtfB; recombinant GTF-B
As to the kind of experiment: pNPG hydrolysis kinetics with recombinant enzyme (Vmax reduced […]); gel zymography at […] ([…] inhibition). The assay is classed as biochemical.

Assay [2] deals with T2, GTF-C (Streptococcus mutans, UniProt P13470).
T2 construct: gene gtfC; recombinant GTF-C
T2 sequence (P13470 35-1455): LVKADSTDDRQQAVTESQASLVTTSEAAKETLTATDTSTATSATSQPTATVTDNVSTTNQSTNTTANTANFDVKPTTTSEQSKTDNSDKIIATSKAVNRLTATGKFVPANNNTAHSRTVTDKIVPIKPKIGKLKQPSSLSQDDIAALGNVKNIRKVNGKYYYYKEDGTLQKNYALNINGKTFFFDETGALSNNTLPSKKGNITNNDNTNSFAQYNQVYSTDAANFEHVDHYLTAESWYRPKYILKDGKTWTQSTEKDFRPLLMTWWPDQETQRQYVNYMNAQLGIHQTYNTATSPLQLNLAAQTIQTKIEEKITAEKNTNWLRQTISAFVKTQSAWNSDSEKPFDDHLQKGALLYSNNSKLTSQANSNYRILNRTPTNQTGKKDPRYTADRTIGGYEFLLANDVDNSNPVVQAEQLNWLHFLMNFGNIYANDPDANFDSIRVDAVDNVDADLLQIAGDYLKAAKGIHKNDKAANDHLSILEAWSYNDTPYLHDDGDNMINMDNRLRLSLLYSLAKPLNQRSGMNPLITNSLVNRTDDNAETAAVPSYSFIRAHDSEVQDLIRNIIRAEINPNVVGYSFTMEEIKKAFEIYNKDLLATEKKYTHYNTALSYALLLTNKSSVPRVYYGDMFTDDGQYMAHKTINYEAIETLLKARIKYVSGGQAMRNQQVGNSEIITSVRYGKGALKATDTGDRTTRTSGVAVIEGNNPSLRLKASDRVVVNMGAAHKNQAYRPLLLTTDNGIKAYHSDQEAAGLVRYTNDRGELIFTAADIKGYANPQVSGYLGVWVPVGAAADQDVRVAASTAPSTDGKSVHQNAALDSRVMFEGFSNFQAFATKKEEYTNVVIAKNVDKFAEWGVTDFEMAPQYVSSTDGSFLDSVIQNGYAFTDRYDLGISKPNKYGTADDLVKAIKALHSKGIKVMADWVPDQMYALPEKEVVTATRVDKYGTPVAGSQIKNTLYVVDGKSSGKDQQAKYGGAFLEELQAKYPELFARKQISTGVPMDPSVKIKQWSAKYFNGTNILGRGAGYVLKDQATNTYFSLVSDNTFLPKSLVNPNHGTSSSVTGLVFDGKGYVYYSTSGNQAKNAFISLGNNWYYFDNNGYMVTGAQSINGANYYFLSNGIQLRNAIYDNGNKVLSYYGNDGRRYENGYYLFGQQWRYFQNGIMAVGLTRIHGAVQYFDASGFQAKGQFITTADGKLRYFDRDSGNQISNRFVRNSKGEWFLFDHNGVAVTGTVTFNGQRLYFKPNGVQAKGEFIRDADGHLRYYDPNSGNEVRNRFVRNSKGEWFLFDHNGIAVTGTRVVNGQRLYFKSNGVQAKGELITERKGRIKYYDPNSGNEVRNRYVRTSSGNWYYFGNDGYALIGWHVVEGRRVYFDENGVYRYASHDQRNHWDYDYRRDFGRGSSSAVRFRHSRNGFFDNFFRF
As to the kind of experiment: dynamic light scattering glucan polymerization assay with recombinant GTF-C at […] sucrose; also pNPG hydrolysis kinetics and gel zymography. The assay is classed as biochemical.

T1 sequence (P08987 35-1476): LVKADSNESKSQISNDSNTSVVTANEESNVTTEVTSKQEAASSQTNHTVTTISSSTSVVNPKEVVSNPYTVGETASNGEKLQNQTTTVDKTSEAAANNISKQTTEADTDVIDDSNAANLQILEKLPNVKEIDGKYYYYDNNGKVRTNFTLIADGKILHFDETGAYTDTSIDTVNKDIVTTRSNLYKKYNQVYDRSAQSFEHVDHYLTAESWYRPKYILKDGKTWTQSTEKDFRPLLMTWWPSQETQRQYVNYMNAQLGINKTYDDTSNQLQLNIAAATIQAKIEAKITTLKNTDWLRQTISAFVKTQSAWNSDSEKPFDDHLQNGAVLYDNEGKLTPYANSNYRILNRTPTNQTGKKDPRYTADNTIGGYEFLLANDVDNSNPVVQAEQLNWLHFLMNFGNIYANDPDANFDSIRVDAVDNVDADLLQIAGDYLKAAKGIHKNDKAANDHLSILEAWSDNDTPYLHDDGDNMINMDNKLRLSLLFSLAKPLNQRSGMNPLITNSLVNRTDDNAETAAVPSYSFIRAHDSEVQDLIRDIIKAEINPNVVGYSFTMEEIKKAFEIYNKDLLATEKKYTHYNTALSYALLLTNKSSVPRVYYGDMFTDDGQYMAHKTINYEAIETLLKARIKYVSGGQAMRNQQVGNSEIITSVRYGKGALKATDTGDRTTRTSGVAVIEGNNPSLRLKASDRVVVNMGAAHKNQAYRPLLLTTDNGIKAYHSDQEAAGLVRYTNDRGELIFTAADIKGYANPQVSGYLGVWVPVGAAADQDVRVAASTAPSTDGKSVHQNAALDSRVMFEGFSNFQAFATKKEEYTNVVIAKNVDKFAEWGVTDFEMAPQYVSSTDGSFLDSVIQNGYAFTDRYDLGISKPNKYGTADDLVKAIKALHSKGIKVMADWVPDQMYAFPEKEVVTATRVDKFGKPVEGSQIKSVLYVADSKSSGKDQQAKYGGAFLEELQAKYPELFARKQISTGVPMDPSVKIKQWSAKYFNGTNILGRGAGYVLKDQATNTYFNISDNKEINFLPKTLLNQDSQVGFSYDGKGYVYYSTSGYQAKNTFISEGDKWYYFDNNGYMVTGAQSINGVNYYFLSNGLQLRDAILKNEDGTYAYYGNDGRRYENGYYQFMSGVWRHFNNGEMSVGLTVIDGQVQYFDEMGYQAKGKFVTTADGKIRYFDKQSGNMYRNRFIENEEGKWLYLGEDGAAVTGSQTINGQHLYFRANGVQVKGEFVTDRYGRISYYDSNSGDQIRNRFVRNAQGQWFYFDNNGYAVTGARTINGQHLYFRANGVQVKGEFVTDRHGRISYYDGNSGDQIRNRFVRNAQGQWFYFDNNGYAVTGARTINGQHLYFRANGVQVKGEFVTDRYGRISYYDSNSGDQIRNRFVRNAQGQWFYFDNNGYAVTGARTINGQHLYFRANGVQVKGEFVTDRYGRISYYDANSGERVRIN

In general, IC50 refers to the concentration needed to halve the response being measured. In the case of `NC(=O)c1cc(OCCOCCOCCOCCO)ccc1NC(=O)c1cc2cc([N+](=O)[O-])ccc2s1` [G43-C3-TEG], the “% reduction of Vmax” value in assay [1] is 39 % reduction of Vmax. Also, the IC50 in assay [2] came out at 23.5 µM.
